In US20250319055A1, “COMPOSITIONS FOR TREATING GENITAL HERPES AND METHODS OF THEIR USE” (priority 2024, published 2025):
≈ marks a conversion by molar mass, not a printed value. Read-outs that look alike come from different tables or passages of the source.

How the values were obtained:
[1] = test system: HSV-2 mediated calcium flux in HEK293-RyR1 cells; assay: Calcium flux assay with Fluo-4 Direct Calcium Assay Kit; format: cell-based; conditions: for RFU drop in calcium flux: FIG. 6A-6B legend; for maximum average ΔRFU: treated cells minus cells only, HSV-2 MOI 0.01
Method: The Fluo-4 Direct™ Calcium Assay Kit was be used to assess calcium response in RyR1-expressing cells treated with a calcium agonist (Carbachol) or infected with HSV-2 MS at an MOI of 0.01. For the virus-infected cells, procedures as described above were followed but with a 96-well black plate.
Cells were seeded in 100 μL of incubation medium in black 96-well plates coated with poly-D-lysine at 5.0E+04 cells per well and incubated at 37° C. with 5% CO2 overnight (16-20 hours). […]
A 2× Fluo-4 Direct™ calcium reagent loading solution with 5 mM probenecid was prepared by adding 10 mL of Fluo-4 Direct™ calcium assay buffer and 200 μL of the 250 mM stock solution of probenecid to one bottle of 2× Fluo-4 Direct™ calcium reagent (labeled Component A). The solution was vortexed and allowed to sit for five minutes for complete dissolution. […]
The fluorescence of each well was measured directly after the addition of carbachol with the Biotek Cytation 5 plate reader using the fluorescence reader settings for excitation at 494/10 nm and emission at 520/10 nm. The fluorescence measurements in relative fluorescence units (RFU) were recorded and exported to Excel.
ΔRFU is given in relative fluorescent units (RFU) as the maximum response (TA or virus treated cells) minus the minimum response (cells only).
On day 3, a 250 mM stock solution of probenecid was prepared by adding 1 mL of Fluo-4 Direct™ calcium assay buffer (labeled Component C) to each 77 mg vial of water-soluble probenecid. The vial was vortexed until dissolved.
Plated cells were removed from the incubator. TA/virus dilutions were removed and 100 μL of incubation medium was added to the plate. Then, 100 μL of 2× Fluo-4 Direct™ calcium reagent loading solution was added. Plates were incubated for 30 minutes at 37° C. with 5% CO2 followed by 30 minutes at room temperature. Carbachol dilutions (100 μL) were added to the plate that contains only cells as a positive control.

[2] = test system: HSV-2 MS in HEK293-RyR1 cells; assay: HSV-2 cytopathic effect (CPE) inhibition assay, crystal violet staining; format: cell-based, Herpes Simplex Virus 2, strain MS; conditions: for IC50: Human alphaherpesvirus 2, 72 h, read-out: IC50, CPE inhibition
Method: HSV-2 infection was established in HEK293-RyR1 cells by testing three different multiplicities of infection (MOI) as part of the development of the CPE inhibition assay. An inhibitor of HSV-2 was incubated with cells and subsequently infected with HSV-2 at three different MOIs. Cells-only and virus-only controls were included. Cells were observed daily to monitor CPE progression, and the incubation was allowed to continue until sufficient CPE of 60-80% is observed in the virus-only controls. CPE was quantified via crystal violet staining and results given as % inhibition and IC50 values, 50% of the maximum inhibitory dosage of the test article.
The virus was Herpes Simplex Virus 2, strain MS, lot 7172020, at MOI of 0.01 (ATCC, Catalog #VR-540). HEK293-RyR1 cell line was obtained from Kerafast (Cat. #EUR301). Growth medium was DMEM (High Glucose) supplemented with 10% FBS, 2 mM L-Glutamine, 1% Pen/Strep, 100 µg/ml Hygromycin. Incubation medium was DMEM (High Glucose) supplemented with 2% FBS, 2 mM L-Glutamine, 1% Pen/Strep. Infection medium was DMEM (High Glucose) supplemented with 2 mM L-Glutamine, 1% Pen/Strep. Acyclovir (as a control HSV-2 MS inhibitor) was stored at cell culture grade water (Ultrapure DNAse/RNase free distilled water, Thermo Scientific Cat. 10977015) and tested at concentrations of 10, 3.2, 1.0, 0.32, 0.10, 0.032, 0.010, 0.0032 50, 25, 12.5, 6.25, 3.125, 1.5625, 0.78125, 0.3906 100, 50, 25, 12.5, 6.25, 3.125, 1.5625, 0.78125 mg/ml. Carbachol (a Calcium agonist), obtained from Fisher Scientific (ASL0667403) was stored in cell culture-grade water and tested at concentrations of 333, 166.65, 83.325, 41.6625 mg/ml. […]
HSV-2 MS was prepared at the specific MOI in infection medium and added to the acyclovir/TA-containing wells in a dilution block. […] Plates were monitored daily to observe CPE levels. […]
After one hour, plates were washed with tap water and blotted on absorbent paper. Plates were allowed to air dry, and the absorbance of each well was read at 570 nm with a plate reader.
Absorbance values were exported into Excel. […]

[3] = base form versus salt form (Miller et al. 1993); cited from earlier work
HSV-2 genital herpes = assay: Treatment of HSV-2 genital herpes in human subjects; format: in vivo
Text: An otherwise healthy person presented pain with urination and a solitary sore on the vulva. It was initially unclear by visible inspection if the solitary sore was herpes or a shave injury. […] The patient reported Pain 7/10, and worse with urination. […] The patient was given the formulation to use at home (two applications per day). The patient was also offered a prescription for 1 gram of Valtrex to be taken twice a day.
As a comparison, before the date of the patient's treatment, typical otherwise healthy female patients of this same age presenting similar herpes sores are given a prescription for Valtrex and take up to two weeks to resolve their herpes ulcers.
A second human subject with a long history of HSV-2 who has previously taken oral Valtrex™ (Valacyclovir) to resolve past HSV-2 ulcerations was administered a representative pharmaceutical composition of this disclosure as described in Example 1. The subject has previously resolved HSV-2 ulcerations in 5-7 days after outbreak when administered Valtrex. The subject was administered the representative tetracaine composition twice a day for two days at which point the subject's lesions were completely re-epithelialized and the pain was reduced to 0/10. Before treatment, the subject reported pain at 5/10 at max. […]

[4] = at the highest concentration tested

SMILES | RFU drop in calcium flux [1] | maximum average ΔRFU [1, 4] [RFU] | IC50 ([2]; HSV-2 MOI 0.01, 5.0×10^4 HEK293-RyR1 cells per well, day 3) [mg/mL] | flux through the dermis [3] | fold higher average ΔRFU than Acyclovir [1, 4] [fold] | IC50 [2] [mg/mL] | cell morphology of treated cells ([2]; compared to cells only, virus-only and Acyclovir-treated cells, day 3 (FIG. 5D)) | time to resolve HSV-2 ulcerations after outbreak (HSV-2 genital herpes; person, past outbreaks, oral) [days] | time to resolve herpes ulcers (HSV-2 genital herpes; typical otherwise healthy female patients of same age with similar herpes sores, prescription)
Nc1nc2c(ncn2COCCO)c(=O)[nH]1 [Acyclovir] | about 2000 RFU | −1801.6 | 0.0457 (≈ 0.203 mM) |  |  |  |  |  | 
CCCCNc1ccc(C(=O)OCCN(C)C)cc1 [Tetracaine, 2-(dimethylamino)ethyl 4-(butylamino)benzoate] | 4000 RFU | −6527.9 |  | fluxes more readily than the salt form | 3.6 | 94.6 (≈ 358 mM) | Abnormal cell morphology |  | 
CC(C)[C@H](N)C(=O)OCCOCn1cnc2c(=O)[nH]c(N)nc21 [Valtrex] |  |  |  |  |  |  |  | 5 to 7 | up to two
